Experimental findings from patent US5382579A, “Triazolo-1,4-diazepine derivatives and their use in pharmaceuticals” (Eisai Co., Ltd., priority 1988, dated 1995) are described below.

The structures appear in SMILES notation. Where two headings read alike, the source gives them in different places.

For this assay, the target named is T1, PAF receptor (Homo sapiens, UniProt P25105).
T1 construct: Platelets are obtained from healthy men according to the usual method; endogenous in cells; host or cells: platelets from healthy men
Description: PAF Receptor Binding Assay to the Human Platelet (3H-PAF). The following applies: 3H-PAF 0.6-1 nM, 37° C., pH 7.0. The procedure: Platelets are obtained from healthy men according to the usual method and suspended at a concentration of 10^8 platelets/460 μl in a binding buffer (10 mM phosphate-buffers saline (pH 7.0), with 0.1% (w/V) BSA and 0.9 mM CaCl2). Platelets (10^8) in 460 μl of the buffer were added to polypropylene tubes and preincubated with test compounds (20 μl), after vortexing, for 6 min at 37° C. Subsequently, 20 μl of a binding buffer solution of ^3 H-PAF (final ^3 H-PAF concentration 0.6-1 nM) was added to the tubes, which were incubated for 6 minutes. The binding reaction was stopped by adding of 3 ml of an ice-cold washing solution (saline containing 0.1% (w/v) BSA). Platelets were isolated by vacuum filtration on glass filters (Whatman GF/C). After drying the glass filter, radioactivity on the glass filter was measured in scintilator with a liquid scintillation counter.
The inhibition percent is calculated according to the following equation and the value of IC is determined by interpolation from the figure. [formula] binding: radioactivity of binding in the absence of cold PAF or test compounds
non-specific binding: radioactivity of binding in the presence of 10^-5 M PAF
non-specific binding: radioactivity (dpm) after the incubation with 10^-5 M of cold PAF.

The mark [1] stands for this setting: PAF receptor binding assay IC50, human platelets.
The mark [2] stands for this setting: human platelets, read-out: PAF receptor binding assay IC50.

T1 sequence (P25105 whole entry): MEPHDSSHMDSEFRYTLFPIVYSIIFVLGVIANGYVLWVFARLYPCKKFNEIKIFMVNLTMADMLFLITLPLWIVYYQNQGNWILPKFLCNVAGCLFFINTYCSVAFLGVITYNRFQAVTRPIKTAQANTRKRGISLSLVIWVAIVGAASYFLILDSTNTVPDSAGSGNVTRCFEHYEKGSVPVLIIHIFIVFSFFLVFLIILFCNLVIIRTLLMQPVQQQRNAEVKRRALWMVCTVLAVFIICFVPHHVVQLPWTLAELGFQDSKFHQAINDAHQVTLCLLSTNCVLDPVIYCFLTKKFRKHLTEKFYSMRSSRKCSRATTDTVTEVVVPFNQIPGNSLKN

With `Cc1nnc2n1-c1sc3c(c1C(c1ccccc1Cl)=NC2)CCN(C(=O)OC(C)(C)C#N)C3`, the IC50 under setting [1] amounted to 3.3 nM.

Under setting [1], `Cc1nnc2n1-c1sc3c(c1C(c1ccccc1Cl)=NC2)CCN(C(=O)C1CCC1)C3` showed an IC50 of 1.8 nM.

Turning to `Cc1nnc2n1-c1sc3c(c1C(c1ccccc1Cl)=NC2)CCN(C(=O)C#Cc1ccccc1)C3`, the IC50 under setting [1] is 0.56 nM.

Molecule `C#CCCCCOC(=O)N1CCc2c(sc3c2C(c2ccccc2Cl)=NCc2nnc(C)n2-3)C1` had an IC50 under setting [1] of 0.22 nM.

Molecule `CCC#CCOC(=O)N1CCc2c(sc3c2C(c2ccccc2Cl)=NCc2nnc(C)n2-3)C1` returned an IC50 under setting [1] of 0.74 nM.

For the molecule `Cc1nnc2n1-c1sc3c(c1C(c1ccccc1Cl)=NC2C)CCN(C(=O)OC(C)(C)C#N)C3` (single isomer, unassigned) [drawing 90], the IC50 under setting [2] came out at 500 nM.

For the molecule `Cc1nnc2n1-c1sc3c(c1C(c1ccccc1Cl)=NC2C)CCN(C(=O)OC(C)(C)C#N)C3` (single isomer, unassigned) [drawing 91], the IC50 under setting [2] came out at 3.1 nM.

With `C#CCCOC(=O)N1CCc2c(sc3c2C(c2ccccc2Cl)=NC(C)c2nnc(C)n2-3)C1` (single isomer, unassigned) [drawing 92], the IC50 under setting [2] amounted to 82 nM.

As to `C#CCCOC(=O)N1CCc2c(sc3c2C(c2ccccc2Cl)=NC(C)c2nnc(C)n2-3)C1` (single isomer, unassigned) [drawing 93], the IC50 under setting [2] is 0.34 nM.

The molecule `Cc1nnc2n1-c1sc3c(c1C(c1ccccc1Cl)=NC2C)CCN(C(=O)C1CC1)C3` (single isomer, unassigned) [drawing 94] had an IC50 under setting [1] of 420 nM.

`Cc1nnc2n1-c1sc3c(c1C(c1ccccc1Cl)=NC2C)CCN(C(=O)C1CC1)C3` (single isomer, unassigned) [drawing 95]: the IC50 under setting [1] came to 2.8 nM.

Under setting [1], `Cc1nnc2n1-c1sc3c(c1C(c1ccccc1Cl)=NC2)CCN(C(=O)OCCCC#N)C3` [drawing 82] showed a half-inhibitory concentration (IC50) of 2.7 nM.

Molecule `C#CCCOC(=O)N1CCc2c(sc3c2C(c2ccccc2Cl)=NCc2nnc(C)n2-3)C1` [drawing 83] registered an IC50 under setting [1] of 3.5 nM.

As for `C#CCCOC(=O)N1CCc2c(sc3c2C(c2ccccc2Cl)=NCc2nnc(C)n2-3)C1` [drawing 88], under setting [2], the IC50 came out at 1.5 nM.

`Cc1nnc2n1-c1sc3c(c1C(c1ccccc1Cl)=NC2)CCN(C(=O)OCCCC#N)C3` [drawing 89]: under setting [1], the IC50 is 4.4 nM.

What is called IC50 is the concentration at which inhibition is half-maximal.
